{"source": "patent US20060052303A1", "about": "“Use of thyrotropin for regeneration of bone” (priority 2004, published 2006)", "key": {"OVX rats": {"tested_on": "OVX rats", "experiment": "Treatment of osteopenia in OVX rats using rat TSH (Example 2B)", "type": "in vivo", "method": "A similar study following essentially the same dosing regimens. was performed using the native rat TSH in OVX rats. […] Rat TSH with a specific activity of approximately 90 lU/mg was obtained from the Scripps Institute. Bone mineral monitoring in vivo and serum and urine biochemical analyses were performed essentially as described in Example 3A.\nBiochemical assays—Urinary levels of deoxypyridinoline cross-links and creatinine (DPD and Cr, respectively) are analyzed in duplicate using rat ELISA kits from Metrobiosystems (Mountain View, Calif., USA). Serum levels of osteocalcin (OSC) are measured using a rat sandwich ELISA kit from Biomedical Technologies (Stroughton, Mass., USA). The manufacturer's protocols are followed, and all samples are assayed in duplicate. A standard curve is generated from each kit, and the absolute concentrations are extrapolated from the standard curve. […]\nThe complete secondary spongiosa of the proximal tibia is evaluated, thereby completely avoiding sampling errors incurred by random deviations of a single section. […] From the binarized images, structural indices are assessed with three-dimensional (3D) techniques for trabecular bone.\nRelative bone volume, trabecular number, thickness, and separation are calculated by measuring 3D distances directly in the trabecular network and taking the mean over all voxels.\nBone surface is calculated from a tetrahedron meshing technique. By displacing the surface of the structure in infinitesimal amounts, the structure model index (SMI) is calculated. The SMI quantifies the plate versus rod characteristics of trabecular bone, in which an SMI of 0 pertains to a purely plate-shaped bone, an SMI of 3 designates a purely rod-like bone, and values between stand for mixtures of plates and rods. Furthermore, connectivity density based on the Euler number is determined. In addition, a 3D cubical voxel model of bone is built, and cortical thickness is measured."}, "[1]": {"tested_on": "ovariectomized (OVX) rats", "experiment": "Bone restoration study in ovariectomized rats with native rat TSH (Example 3B)", "type": "in vivo", "method": "To confirm that TSH has an anabolic effect on bone, a restoration study was performed, Native rat TSH was administered seven months after ovariectomy essentially following a similar dose and dosing regimen as described in Example 2B except that administration of TSH was extended until 16 weeks.\nTwelve animals were sham operated, while forty eight were ovariectomized (OVX) bilaterally by abdominal approach. Treatment started six weeks after ovariectomy as follows: (1) SHAM (n=12); (2) OVX+vehicle (n=12); (3) OVX+0.01 μg (n=12); (3) OVX+0.1 μg (n=12); and (4) OVX+0.3 μg (n=12).\nBone mineral density monitoring in vivo and ex vivo and serum and urine biochemical analyses were performed essentially as described in Example 3A. Eight-month old rats were ovariectomized and then left for seven months to lose bone. Therapy was then started and continued for 16 weeks and BMD was measured both in vivo and ex vivo, and microCT and serum biochemistry were performed."}, "[2]": {"settings": "obtained from the Scripps Institute; cited from earlier work"}, "thyroid": {"tested_on": "thyroid", "settings": "in rats; cited from earlier work"}, "[3]": {"settings": "in particular with 0.1 and 0.3 μg/rat"}}, "data": [{"substance": "rat TSH: native rat TSH obtained from the Scripps Institute", "values": [{"measurement": "bone loss associated with ovariectomy", "setting": "OVX rats; 0.01, 0.1, 0.3 μg per rat, in vivo total body, hind limbs, lumbar BMD, ex vivo proximal femur and tibia BMD, microCT", "value": "effective in preventing the bone loss"}, {"measurement": "serum collagen C-telopeptide", "setting": "OVX rats; indicates anti-resorptive activity", "value": "reduction"}, {"measurement": "effective concentration in the rat relative to human TSH", "setting": "OVX rats; rat, in vivo", "value": "effective in the rat at lower concentration than human TSH"}, {"measurement": "BMD values of hind limbs in vivo", "setting": "[1]; 0.01 μg/rat, 12 and 16 weeks time points", "value": "did not induce a measurable effect"}, {"measurement": "cortical thickness above ovariectomized rats", "setting": "[1]; 0.1 μg/rat", "value": 14, "unit": "%"}, {"measurement": "cortical thickness above sham animal values", "setting": "[1]; 0.1 μg/rat", "value": "~10", "unit": "%"}, {"measurement": "ex vivo proximal femur BMD (DEXA)", "setting": "[1]; 0.3 μg", "value": "increased"}, {"measurement": "cortical thickness (microCT)", "setting": "[1]; 0.1 and 0.3 μg/rat", "value": "increased"}, {"measurement": "BMD values of hind limbs in vivo", "setting": "[1]; 0.1 and 0.3 μg/rat, FIG. 14", "value": "increased"}, {"measurement": "bone volume of long bones and the spine (microCT, trabecular bone ex vivo)", "setting": "[1]; all three doses tested (0.01, 0.1, 0.3 μg)", "value": "increased"}, {"measurement": "ex vivo lumbar spine BMD", "setting": "[1]; [3]", "value": "increased"}, {"measurement": "ex vivo tibia BMD", "setting": "[1]; [3]", "value": "increased"}, {"measurement": "trabecular number (microCT)", "setting": "[1]; lesser extent than trabecular thickness", "value": "increased"}, {"measurement": "T3 and T4 serum levels", "setting": "[1]; rat, in vivo", "value": "no measurable increase"}, {"measurement": "ex vivo distal femur BMD (DEXA)", "setting": "[1]; rat, in vivo", "value": "slightly increased"}, {"measurement": "ex vivo total femur BMD (DEXA)", "setting": "[1]; rat, in vivo", "value": "slightly increased"}, {"measurement": "trabecular thickness (microCT)", "setting": "[1]; vs sham and ovariectomized rats", "value": "significantly increased"}, {"measurement": "specific activity", "setting": "[2]", "value": "approximately 90 lU/mg"}, {"measurement": "effectiveness in stimulating thyroid hormone production compared to human recombinant TSH", "setting": "thyroid", "value": "10-20 times"}]}]}
